The values below come from PubChem BioAssay (NCI).

Some test systems named below: EKVX NSCLC; UACC-62 melanoma; SF-295 CNS; MALME-3M melanoma; 786-0 renal; HCT-15 colon; NCI-H522 lung; OVCAR-4 ovarian; SF-268 CNS; LOX IMVI melanoma; UACC-257 melanoma.
Experiment in all cases: inhibition of tumour cell growth, NCI panel, 48 h

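Five concentrations, 48 hours, 96-well plates. At the TGI there is no net growth.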 Some results are limits rather than exact numbers.

Regarding `CCN1CCCC(Nc2cc(C)nc(/N=C(/N)Nc3ccc(Cl)c(Cl)c3)n2)C1` (stereo not drawn), the TGI in the assay with EKVX NSCLC turned out to be 11.4 µM; in the assay on UACC-62 melanoma, 3.31 µM; with SF-295 CNS, 2.41 µM; in the assay on MALME-3M melanoma, 4.02 µM; in the assay on 786-0 renal it was 2.95 µM; in the assay on HCT-15 colon it was 3.7 µM. Besides, the TGI was found to be 2.61 µM in the assay on NCI-H522 lung, 4.97 µM with OVCAR-4 ovarian and 5.63 µM with SF-268 CNS.

In the case of `C#CCSc1nc(N)c2ncn(C3OC(COP(=O)(O)O)C(O)C3O)c2n1` (stereo not drawn), the TGI in the assay with LOX IMVI melanoma, with EKVX NSCLC, with UACC-62 melanoma, in the assay with UACC-257 melanoma, in the assay with SF-295 CNS and in the assay with MALME-3M melanoma was greater than 239 µM throughout. The TGI in the assay with 786-0 renal, in the assay on HCT-15 colon, in the assay with NCI-H522 lung, in the assay with OVCAR-4 ovarian and in the assay on SF-268 CNS was greater than 239 µM in each case.

Take `COc1ccc(-c2onc(-c3c(C)cc(C)cc3C)c2C2=NCCN2)cc1`: the TGI in the assay with LOX IMVI melanoma was greater than 100 µM; in the assay on EKVX NSCLC, greater than 100 µM; with UACC-62 melanoma, greater than 100 µM; with UACC-257 melanoma it was 46.1 µM; with SF-295 CNS, 35.3 µM; in the assay with MALME-3M melanoma, 74.1 µM. For the same molecule, the TGI in the assay with 786-0 renal, with HCT-15 colon, in the assay on OVCAR-4 ovarian and in the assay with SF-268 CNS was greater than 100 µM in each case.

As to `CC1=NN(C(=O)c2ccc(Cl)cc2)C(=O)/C1=C/c1ccc(Cl)cc1`, the TGI in the assay on LOX IMVI melanoma, with EKVX NSCLC, in the assay on UACC-62 melanoma, in the assay on UACC-257 melanoma, with SF-295 CNS and in the assay on MALME-3M melanoma was greater than 100 µM in each case. Further, the TGI in the assay on 786-0 renal, in the assay on NCI-H522 lung, in the assay on OVCAR-4 ovarian and in the assay on SF-268 CNS was greater than 100 µM in each case.

`CN1Cc2c(nc(-c3ccc(Br)cc3)c[n+]2[O-])N(C)C1`: the TGI with EKVX NSCLC, with UACC-257 melanoma, in the assay with SF-295 CNS, in the assay on MALME-3M melanoma, in the assay with 786-0 renal and in the assay on NCI-H522 lung was greater than 100 µM in each case. Also, the TGI with OVCAR-4 ovarian and in the assay on SF-268 CNS was greater than 100 µM each time.

Regarding `CCOC(=O)c1c(NCc2ccccc2)n(-c2ccccc2)c(=S)n(-c2ccccc2)c1=O`, the TGI in the assay with LOX IMVI melanoma, in the assay with UACC-62 melanoma, with UACC-257 melanoma, in the assay with SF-295 CNS, in the assay on MALME-3M melanoma and with 786-0 renal was greater than 100 µM throughout. Moreover, the TGI in the assay with HCT-15 colon, with NCI-H522 lung, in the assay on OVCAR-4 ovarian and in the assay with SF-268 CNS was greater than 100 µM throughout.

Regarding `C/C(=C\Cc1cc(O)ccc1O)CCc1c(C)c(O)c(O)c(C=O)c1C`, the TGI with EKVX NSCLC was greater than 100 µM; in the assay with SF-295 CNS, 91.5 µM; in the assay on MALME-3M melanoma, 80.2 µM; with 786-0 renal it was 62.2 µM; in the assay on HCT-15 colon, greater than 100 µM; with NCI-H522 lung, 21.4 µM. In addition, the TGI in the assay on OVCAR-4 ovarian was greater than 100 µM; in the assay on SF-268 CNS it was 68.5 µM.

Take `O=C(COc1ccc(Cl)cc1)N1CCN(C(=O)COc2ccc(Cl)cc2)c2ccccc21`: the TGI with LOX IMVI melanoma, in the assay with EKVX NSCLC, with UACC-257 melanoma, in the assay on SF-295 CNS, in the assay with MALME-3M melanoma and in the assay with 786-0 renal was greater than 100 µM in each case. The TGI in the assay on NCI-H522 lung and in the assay on SF-268 CNS was greater than 100 µM each time.

As for `CC(=O)Nc1ccc(C(=O)N2N=C(C)/C(=C/c3cccc([N+](=O)[O-])c3)C2=O)cc1`, the TGI in the assay with LOX IMVI melanoma, in the assay on EKVX NSCLC, with UACC-257 melanoma, in the assay with SF-295 CNS, in the assay with MALME-3M melanoma and in the assay with 786-0 renal was greater than 100 µM throughout. For the same molecule, the TGI with NCI-H522 lung, with OVCAR-4 ovarian and with SF-268 CNS was greater than 100 µM each time.

For the molecule `Cc1occ2c1C(=O)CC1C2[C@@H](O)CC2C(C)(C)CCC[C@]12C` (stereo partly drawn), the TGI in the assay with EKVX NSCLC, in the assay with UACC-62 melanoma, with UACC-257 melanoma, in the assay with SF-295 CNS, in the assay with MALME-3M melanoma and with 786-0 renal was greater than 100 µM in each case. Also, the TGI in the assay with HCT-15 colon, in the assay with NCI-H522 lung, in the assay with OVCAR-4 ovarian and in the assay on SF-268 CNS was greater than 100 µM in each case.

With `COC1(C)C(=O)N2C1N(C(=O)OCc1ccccc1)CC2(C)C` (stereo not drawn), the TGI with LOX IMVI melanoma, in the assay on EKVX NSCLC, in the assay with UACC-62 melanoma, in the assay with UACC-257 melanoma, in the assay on SF-295 CNS and in the assay with MALME-3M melanoma was greater than 100 µM each time. Moreover, the TGI in the assay on 786-0 renal, in the assay with HCT-15 colon, with OVCAR-4 ovarian and with SF-268 CNS was greater than 100 µM throughout.
